In PubChem BioAssay AID449736 (Sanford-Burnham Center for Chemical Genomics, 2010):

Biological target: Tyrosine-protein phosphatase non-receptor type 7 (Homo sapiens) (UniProt P35236)
Experiment: HePTP (PTPN7) phosphatase inhibitor potency, SAR follow-up, biochemical, set 2 (AID 449736)
Settings: recombinant HePTP phosphatase activity, inhibition

Sequence of Tyrosine-protein phosphatase non-receptor type 7 (Homo sapiens) (P35236 whole entry, looked up): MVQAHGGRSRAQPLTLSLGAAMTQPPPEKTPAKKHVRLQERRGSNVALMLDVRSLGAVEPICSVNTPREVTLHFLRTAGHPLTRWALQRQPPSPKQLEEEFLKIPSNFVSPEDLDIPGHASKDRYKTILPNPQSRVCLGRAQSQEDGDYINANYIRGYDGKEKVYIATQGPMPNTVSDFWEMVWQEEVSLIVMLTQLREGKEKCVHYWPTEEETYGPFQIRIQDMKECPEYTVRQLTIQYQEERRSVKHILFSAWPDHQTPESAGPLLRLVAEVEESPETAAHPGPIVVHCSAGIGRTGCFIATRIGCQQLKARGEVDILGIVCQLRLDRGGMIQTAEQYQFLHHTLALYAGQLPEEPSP

Compound COc1cc(/C=C2\SC(=O)N(CC(=O)Nc3cccc(C)c3)C2=O)cc(Cl)c1OCC(=O)O has an IC50 of 3.61 µM.
